Experimental data from the CheMixHub viscosity set.
Several values for one entry are separate records, joined by “and”; a condition that tells them apart may be missing. Equal entries are not always repeated.

Test: xn = mol fraction of the nth substance listed

N=C(N)NCCC[C@H](N)C(=O)[O-].[Na+] + O
viscosity [mPa·s], 101 kPa
Conditions	x1 = 0.004484	x1 = 0.008927	x1 = 0.01333	x1 = 0.0177	x1 = 0.02202	x1 = 0.02631
293.15 K	1.199	1.453	1.745	2.107	2.501	2.956
303.15 K	0.963	1.149	1.361	1.615	1.907	2.248
313.15 K	0.78	0.925	1.087	1.278	1.493	1.744
323.15 K	0.645	0.759	0.881	1.033	1.201	1.384

NC(=O)CC[C@H](N)C(=O)O + O
viscosity, 101 kPa
Conditions	x1 = 0.00045	x1 = 0.0009	x1 = 0.001	x1 = 0.00135	x1 = 0.001798	x1 = 0.002247	x1 = 0.002695	x1 = 0.003
298.15 K	0.897 mPa·s	–	–	0.909 mPa·s	0.915 mPa·s	–	0.9269 mPa·s	0.9238 mPa·s and 0.9238 mPa·s
303.15 K	0.8032 mPa·s	–	0.812 mPa·s	0.8135 mPa·s	0.8186 mPa·s	0.8237 mPa·s	0.8288 mPa·s	0.8262 mPa·s and 0.8262 mPa·s
308.15 K	–	0.7288 mPa·s	0.7318 mPa·s and 0.7318 mPa·s	–	–	–	0.7464 mPa·s	0.7442 mPa·s
313.15 K	–	0.6613 mPa·s	–	0.6651 mPa·s	0.6689 mPa·s	0.6727 mPa·s	0.6765 mPa·s	0.6746 mPa·s
318.15 K	0.6013 mPa·s	0.6048 mPa·s	0.6071 mPa·s	0.6082 mPa·s	0.6115 mPa·s	0.6148 mPa·s	0.6181 mPa·s	0.6166 mPa·s

O=C[C@H](O)[C@@H](O)[C@@H](O)[C@H](O)CO + O
viscosity
Conditions	298.15 K	308.15 K
101 kPa, x1 = 0.0002	0.9056 mPa·s and 0.9056 mPa·s	–
101 kPa, x1 = 0.001	0.9592 mPa·s and 0.9592 mPa·s	–
101 kPa, x1 = 0.0018	0.9761 mPa·s and 0.9761 mPa·s	–
101 kPa, x1 = 0.002	0.9675 mPa·s and 0.9675 mPa·s	–
101 kPa, x1 = 0.003502	0.971 mPa·s	–
101 kPa, x1 = 0.00393	0.9552 mPa·s	0.814 mPa·s
101 kPa, x1 = 0.00634	1.043 mPa·s	0.8355 mPa·s
101 kPa, x1 = 0.01867	1.505 mPa·s	–
101.3 kPa, x1 = 0.02116	1.511 mPa·s	–

O=P([O-])(O)O.[K+] + O
viscosity [mPa·s], 101 kPa
Conditions	x1 = 0.0018	x1 = 0.0054	x1 = 0.0089	x1 = 0.012	x1 = 0.016
298.15 K	0.9211	0.9772	1.037	1.11	1.186
303.15 K	0.8252	0.8757	0.9339	0.9884	1.062
308.15 K	0.7468	0.7881	0.837	0.8844	0.9335

[Ce+3].[Cl-].[Cl-].[Cl-] + O
Conditions	viscosity
298.15 K, 101.33 kPa, x1 = 0.06822	12.27 mPa·s and 12.27 mPa·s
